Test results published in patent publication US20240207263A1, “SELECTIVE MODULATORS OF ATAXIA TELA[…] (ATM) KINASE AND USES THEREOF” (priority 2021, published 2024).

Biological target: ATM (Homo sapiens (Human), UniProt Q13315)
Test: biochemical
Type: biochemical
Details: read-out: ATM IC50
Text: Assay a): ATM Biochemical Potency
Data was collected by Caliper.

ATM, sequence (Q13315 whole entry, looked up): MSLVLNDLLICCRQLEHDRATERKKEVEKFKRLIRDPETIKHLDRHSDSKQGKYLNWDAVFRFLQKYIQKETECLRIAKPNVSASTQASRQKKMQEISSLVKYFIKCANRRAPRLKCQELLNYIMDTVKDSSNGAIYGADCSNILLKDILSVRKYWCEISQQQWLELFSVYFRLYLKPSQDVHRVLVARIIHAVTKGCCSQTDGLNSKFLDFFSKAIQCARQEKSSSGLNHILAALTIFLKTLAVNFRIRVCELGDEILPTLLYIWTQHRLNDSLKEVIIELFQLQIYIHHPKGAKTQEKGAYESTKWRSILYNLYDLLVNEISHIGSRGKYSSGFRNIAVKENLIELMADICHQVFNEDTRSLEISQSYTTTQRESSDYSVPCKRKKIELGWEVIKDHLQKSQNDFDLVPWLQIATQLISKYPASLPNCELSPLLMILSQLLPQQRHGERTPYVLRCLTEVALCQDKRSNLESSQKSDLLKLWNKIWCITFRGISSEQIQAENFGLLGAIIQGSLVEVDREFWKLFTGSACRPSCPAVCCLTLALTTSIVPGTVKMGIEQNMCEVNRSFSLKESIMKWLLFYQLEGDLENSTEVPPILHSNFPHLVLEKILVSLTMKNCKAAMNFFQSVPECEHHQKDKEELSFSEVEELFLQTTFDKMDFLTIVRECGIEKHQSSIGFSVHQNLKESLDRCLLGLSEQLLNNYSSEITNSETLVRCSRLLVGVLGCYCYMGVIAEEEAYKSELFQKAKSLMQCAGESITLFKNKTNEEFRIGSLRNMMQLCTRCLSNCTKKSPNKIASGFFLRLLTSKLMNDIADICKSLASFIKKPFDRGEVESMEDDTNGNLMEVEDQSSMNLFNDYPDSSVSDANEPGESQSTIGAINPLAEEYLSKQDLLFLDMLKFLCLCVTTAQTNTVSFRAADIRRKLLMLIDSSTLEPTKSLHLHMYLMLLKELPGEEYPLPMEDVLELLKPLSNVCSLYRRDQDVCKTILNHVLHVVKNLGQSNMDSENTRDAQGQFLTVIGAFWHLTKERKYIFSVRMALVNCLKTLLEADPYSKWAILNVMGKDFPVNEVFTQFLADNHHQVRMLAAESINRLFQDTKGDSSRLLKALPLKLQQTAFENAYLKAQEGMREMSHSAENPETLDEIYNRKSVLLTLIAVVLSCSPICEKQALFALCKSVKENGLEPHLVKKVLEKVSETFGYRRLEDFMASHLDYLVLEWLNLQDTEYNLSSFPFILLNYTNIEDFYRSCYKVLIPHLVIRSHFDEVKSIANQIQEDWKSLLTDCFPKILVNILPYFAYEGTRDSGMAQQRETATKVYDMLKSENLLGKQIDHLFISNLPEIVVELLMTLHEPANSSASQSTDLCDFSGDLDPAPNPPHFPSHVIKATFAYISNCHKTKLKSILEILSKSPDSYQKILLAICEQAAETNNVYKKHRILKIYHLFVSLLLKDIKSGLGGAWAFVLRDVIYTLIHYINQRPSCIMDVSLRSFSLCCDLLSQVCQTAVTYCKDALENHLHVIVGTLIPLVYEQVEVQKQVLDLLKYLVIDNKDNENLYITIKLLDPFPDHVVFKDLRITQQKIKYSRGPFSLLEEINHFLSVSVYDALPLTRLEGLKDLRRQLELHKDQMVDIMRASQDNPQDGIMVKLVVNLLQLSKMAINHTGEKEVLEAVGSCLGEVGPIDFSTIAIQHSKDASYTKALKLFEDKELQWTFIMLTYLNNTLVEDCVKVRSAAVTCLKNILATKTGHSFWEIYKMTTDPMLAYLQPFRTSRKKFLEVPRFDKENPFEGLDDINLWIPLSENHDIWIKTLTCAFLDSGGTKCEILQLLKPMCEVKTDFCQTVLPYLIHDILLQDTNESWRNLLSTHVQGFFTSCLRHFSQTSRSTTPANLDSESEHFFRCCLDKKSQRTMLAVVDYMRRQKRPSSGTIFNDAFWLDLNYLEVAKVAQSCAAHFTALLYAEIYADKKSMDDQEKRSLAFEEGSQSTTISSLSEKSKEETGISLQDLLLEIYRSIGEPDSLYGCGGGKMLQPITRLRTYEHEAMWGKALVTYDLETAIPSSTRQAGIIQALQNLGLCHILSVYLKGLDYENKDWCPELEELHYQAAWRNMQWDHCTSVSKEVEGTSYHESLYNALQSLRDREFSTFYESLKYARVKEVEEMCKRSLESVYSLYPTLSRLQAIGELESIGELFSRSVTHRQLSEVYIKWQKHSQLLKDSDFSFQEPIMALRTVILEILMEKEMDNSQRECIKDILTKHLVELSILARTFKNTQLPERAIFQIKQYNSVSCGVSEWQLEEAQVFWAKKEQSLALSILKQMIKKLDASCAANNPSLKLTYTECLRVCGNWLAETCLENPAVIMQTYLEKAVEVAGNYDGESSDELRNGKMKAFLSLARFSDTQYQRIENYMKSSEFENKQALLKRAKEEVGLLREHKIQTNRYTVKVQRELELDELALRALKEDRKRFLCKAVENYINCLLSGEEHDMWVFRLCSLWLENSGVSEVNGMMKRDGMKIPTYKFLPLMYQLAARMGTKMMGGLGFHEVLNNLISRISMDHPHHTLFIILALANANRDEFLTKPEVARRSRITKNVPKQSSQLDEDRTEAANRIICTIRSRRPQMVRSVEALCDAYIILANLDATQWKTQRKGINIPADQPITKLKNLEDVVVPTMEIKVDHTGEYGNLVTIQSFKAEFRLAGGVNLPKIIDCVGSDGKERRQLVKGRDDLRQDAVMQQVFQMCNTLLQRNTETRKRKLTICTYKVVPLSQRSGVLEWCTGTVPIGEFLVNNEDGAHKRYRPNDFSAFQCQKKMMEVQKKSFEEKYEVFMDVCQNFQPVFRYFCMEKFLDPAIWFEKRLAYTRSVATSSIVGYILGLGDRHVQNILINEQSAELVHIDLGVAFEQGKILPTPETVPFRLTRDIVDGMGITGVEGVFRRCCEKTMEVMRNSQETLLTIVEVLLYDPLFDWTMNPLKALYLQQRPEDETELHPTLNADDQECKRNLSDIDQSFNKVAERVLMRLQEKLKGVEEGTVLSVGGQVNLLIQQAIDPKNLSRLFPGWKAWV

Q: How did the IC50 turn out when `CC(C)n1c(=O)n(C)c2nnc3ccc(-c4ccc([C@@H](C)OCCN5CCC(F)(F)CC5)nc4)cc3c21` [Example 75, (R)-8-(6-(1-(2-(4,4-difluoropiperidin-1-yl)ethoxy)ethyl)pyridin-3-yl)-1-isopropyl-3-methyl-1H-imidazo[4,5-c]cinnolin-2(3H)-one] was run?
A: 19 nM

Q: Which IC50 does the source give for `CC(C)n1c(=O)n(C)c2nnc3ccc(-c4ccc([C@@H](C)OCCN5CC[C@H](C)C5)nc4)cc3c21` [Example 78, 1-isopropyl-3-methyl-8-(6-((R)-1-(2-((S)-3-methylpyrrolidin-1-yl)ethoxy)ethyl)pyridin-3-yl)-1H-imidazo[4,5-c]cinnolin-2(3H)-one] here?
A: 6.4 nM

Q: For `CC(C)n1c(=O)n(C)c2nnc3ccc(-c4ccc([C@@H](C)OCCN5CC[C@@H](S(C)(=O)=O)C5)nc4)cc3c21` [Example 79, 1-isopropyl-3-methyl-8-(6-((R)-1-(2-((R)-3-(methylsulfonyl)pyrrolidin-1-yl)ethoxy)ethyl)pyridin-3-yl)-1H-imidazo[4,5-c]cinnolin-2(3H)-one], which IC50 is on record?
A: 37 nM

Q: How did the IC50 turn out when `CC(C)n1c(=O)n(C)c2nnc3ccc(-c4ccc([C@@H](C)OCCN5CC6(COC6)C5)nc4)cc3c21` [Example 81, (R)-8-(6-(1-(2-(2-oxa-6-azaspiro[3.3]heptan-6-yl)ethoxy)ethyl)pyridin-3-yl)-1-isopropyl-3-methyl-1H-imidazo[4,5-c]cinnolin-2(3H)-one] was run?
A: 3 nM

Q: Which IC50 does the source give for `CC(C)n1c(=O)n(C)c2nnc3ccc(-c4ccc([C@@H](C)OCCN5CCC6(CCO6)CC5)nc4)cc3c21` [Example 82, (R)-8-(6-(1-(2-(1-oxa-7-azaspiro[3.5]nonan-7-yl)ethoxy)ethyl)pyridin-3-yl)-1-isopropyl-3-methyl-1H-imidazo[4,5-c]cinnolin-2(3H)-one] here?
A: 3.4 nM

Q: `CC(C)n1c(=O)n(C)c2nnc3ccc(-c4ccc([C@@H](C)OCCN5CCC(C6COC6)CC5)nc4)cc3c21` [Example 83, (R)-1-isopropyl-3-methyl-8-(6-(1-(2-(4-(oxetan-3-yl)piperidin-1-yl)ethoxy)ethyl)pyridin-3-yl)-1H-imidazo[4,5-c]cinnolin-2(3H)-one] was tested. Which IC50 did it give?
A: 2.4 nM

Q: How did the IC50 turn out when `CC(C)n1c(=O)n(C)c2nnc3ccc(-c4ccc([C@@H](C)OCCN5CCC(C(F)(F)F)CC5)nc4)cc3c21` [Example 84, (R)-1-isopropyl-3-methyl-8-(6-(1-(2-(4-(trifluoromethyl)piperidin-1-yl)ethoxy)ethyl)pyridin-3-yl)-1H-imidazo[4,5-c]cinnolin-2(3H)-one] was run?
A: 1.9 nM

Q: For `COC[C@@H]1CCN(CCO[C@H](C)c2ccc(-c3ccc4nnc5c(c4c3)n(C(C)C)c(=O)n5C)cn2)C1` [Example 85, 1-isopropyl-8-(6-((R)-1-(2-((R)-3-(methoxymethyl)pyrrolidin-1-yl)ethoxy)ethyl)pyridin-3-yl)-3-methyl-1H-imidazo[4,5-c]cinnolin-2(3H)-one], which IC50 is on record?
A: 3.4 nM

Q: With `CC(C)n1c(=O)n(C)c2nnc3ccc(-c4ccc([C@@H](C)OCCN5CCCCC5)nc4)cc3c21` [Example 87, (R)-1-isopropyl-3-methyl-8-(6-(1-(2-(piperidin-1-yl)ethoxy)ethyl)pyridin-3-yl)-1H-imidazo[4,5-c]cinnolin-2(3H)-one] as the molecule, how does the IC50 read?
A: 8.2 nM

Q: For `CC(C)n1c(=O)n(C)c2nnc3ccc(-c4ccc([C@@H](C)OCCN5CCC6(CCC6)C5)nc4)cc3c21` [Example 89, (R)-8-(6-(1-(2-(6-azaspiro[3.4]octan-6-yl)ethoxy)ethyl)pyridin-3-yl)-1-isopropyl-3-methyl-1H-imidazo[4,5-c]cinnolin-2(3H)-one], which IC50 is on record?
A: 1.6 nM

Q: With `CC(C)n1c(=O)n(C)c2nnc3ccc(-c4ccc([C@@H](C)OCCN5CCC(C)(C#N)C5)nc4)cc3c21` (stereo partly drawn) [Example 90, 1-(2-((R)-1-(5-(1-isopropyl-3-methyl-2-oxo-2,3-dihydro-1H-imidazo[4,5-c]cinnolin-8-yl)pyridin-2-yl)ethoxy)ethyl)-3-methylpyrrolidine-3-carbonitrile] as the molecule, how does the IC50 read?
A: 11 nM
